From patent publication US6734180B1, “NF-κB inhibitor comprising an indan derivative as an active ingredient” (Daiichi Suntory Pharma Co., Ltd., priority 1998, dated 2004) come the findings set out here.

Data set [1] relates to human inducible NO synthase (hiNOS) gene. The experiment in a line: Expression of the human inducible NO synthase (hiNOS) gene, firefly luciferase reporter in A5 cells. Format: cell-based. As to conditions: IL-1β (1 ng/ml)+TNF-α (500 ng/ml), firefly luciferase activity 24 hours later, read-out: IL-1β + TNF-α stimulation IC50 (inhibitory effect on the expression of the hiNOS gene). Here is the method:
Experiment 1. Effect of compounds on the expression of the human inducible NO synthase (hiNOS) gene
The experiment was carried out using A5 cells (human lung carcinoma cell line A549 cells (ATCC, CCL185) stably transfected with NOS53+F) previously reported by the inventors (Nunokawa, Y. et al., (1997) Biochem. Biophys. Res. Commun. 233, 523-526).
Compounds described in Examples were added to A5 cells simultaneously with IL-1β (1 ng/ml)+TNF-α (500 ng/ml) to investigate the inhibitory effect on the firefly luciferase activity 24 hours later.
The activity of firefly luciferase was measured based on the protocol by the Luciferase Assay System (Promega, U.S.A.).
The inhibitory effect of the compounds claimed in the present invention on the expression of the hiNOS gene was expressed as IC50 value in Table 1.

For another data set, the system named is TNF-α production. The data set can be described thus: TNF-α production of LPS-stimulated RAW264.7 cells (ELISA). Format: cell-based, mouse. To be noted: RAW264.7 cells stimulated with LPS for 4 hours. An excerpt: (§1) Experiment 3. Effect of lipopolysaccharide (LPS) stimulation on NO and TNF-α production
(§2) When various cells are stimulated with LPS, NV-κB is activated which results in the expression and induction of proteins represented by NOS, TNF-α, and thereby the cells start to produce NO and/or TNF-α.
(§3) The inhibitory effect of these compounds was expressed as IC50 value in Table 3.

The test system of another data set is NO production. The data set can be described thus: NO production of LPS-stimulated RAW264.7 cells (Griess' method). Format: cell-based, mouse. As to conditions: LPS (10 μg/ml), 24 hours after the stimulation.
Text: as §1, §2
To determine the production of NO indirectly, the Griess' method utilizing a diazo reaction is useful (Green, L. C. et al., (1982) Anal. Biochem, 126, 131-138). In the Griess' method, the Griess' reagent prepared by mixing naphthylethylenediamine and sulfanilic acid is reacted with NO2^− ion in the culture medium, and the color development thereof is measured by an absorbance at 540 nm.
as §3

Data set [2] deals with sea pansy luciferase gene (pRL-SV40) under the control of SV40 promoter. The experiment in a line: Sea pansy luciferase under SV40 promoter (NF-κB independent) in A5 cells. Format: cell-based, human. As to conditions: no stimulation, compound at 1 μg/ml for 4 hours. Here is the method: The activity of sea pansy luciferase was measured based on the protocol by the Dual Luciferase Reporter Assay System (Promega, U.S.A.).

Data set [3] deals with rat models of carageenin foot pad edema. The experiment in a line: Carrageenin foot pad edema in rats. Type of data set: in vivo. To be noted: male Wistar rats, 1 mg/kg intraperitoneally 15 minutes before carrageenin. As for the experimental part:
FIG. 1 is a graph showing the result of Experiment 4 in which the compounds of Example 32 were studied using rat models of carageenin foot pad edema. Each point represents the mean±SE (n=5). Dunnett's test was carried out and the results are shown by * p<0.05 and ** p<0.01.
An aqueous solution of 1% λ-carrageenin (Wako Pure Chemical Industries) in physiological saline (0.1 ml) was intradermally administered to the pad of the left paw of 6-week old male Wistar rats weighing 149 g to 171 g, and changes in the volume of the paw were measured for indicated period. The test compound (0.3, 1 mg/kg) described in Example 32 was suspended in a solution of 0.5% hydroxypropyl cellulose in physiological saline (EPC, Nippon Soda Co., Ltd.) and was intraperitoneally given 15 minutes before the administration of carrageenin. For the control group, a solution of 0.5% HPC in physiological saline was used.

Another data set has as its system NF-κB. The experiment in a line: NF-κB-controlled firefly luciferase in A549/NF-κBLuc cells. Format: cell-based, human. Here is the method: Experiment 2. Effect of compounds on A549 cells (A549/NF-κBLuc) stably transfected with luciferase plasmid (pNFκB-Luc) having the NF-κB regulatory sequence
Using lipofectamine (Lifetech oriental K.K., Tokyo), pNFκB-Luc (Stratagene, U.S.A.) were cotransfected with pSV2neo (Clontech, U.S.A.) into A549 cells according to the conventional method, and A549/NF-κBLuc stably transfected with pNFκB-Luc were selected by adding G418 sulfate ((1 mg/ml) Lifetech Oriental K.K.) to the culture medium.
NF-κB inhibiting activity was expressed as IC50 values in Table 2.

Molecules are shown by their SMILES. Read-outs that look alike come from different tables or passages of the source.

Regarding `Cc1csc2ncnc(NC3Cc4ccccc4C3)c12` [Example 1, 4-(2-indanylamino)-5-methylthieno[2,3-d]pyrimidine], the results for the IC50 (in data set [1] (Homo sapiens); in the data set on TNF-α production (Mus musculus); in the data set with NO production (Mus musculus)) were 280 nM, 1100 nM and 710 nM, respectively.

As for `c1ccc2c(c1)CC(Nc1ncnc3occc13)C2` [Example 6, 4-(2-indanylamino)furo[2,3-d]pyrimidine], the IC50 in data set [1] (Homo sapiens) was found to be 800 nM.

The compound `Cc1noc2ncnc(NC3Cc4ccccc4C3)c12` [Example 10, 3-methyl-4-(2-indanylamino)isoxazolo[5,4-d]pyrimidine] displayed a melting point of 208 °C.

With `CC(C)c1csc2ncnc(NC3Cc4ccccc4C3)c12` [Example 22, 4-(2-indanylamino)-5-isopropylthieno[2,3-d]pyrimidine], the IC50 in data set [1] (Homo sapiens) was determined as 64 nM; in the data set with TNF-α production (Mus musculus), 160 nM; in the data set on NO production (Mus musculus), 64 nM.

For the compound `Cc1csc2ncnc(NC3Cc4ccc(Oc5ccccc5)cc4C3)c12` (stereo not shown) [Example 25, 4-(5-phenoxyindan-2-yl)amino-5-methylthieno[2,3-d]pyrimidine], in data set [1] (Homo sapiens), the IC50 is 150 nM.

Take `Cc1csc2ncnc(NC3Cc4ccc(C(=O)NCc5ccccc5)cc4C3)c12` (stereo not shown) [Example 31, N-benzyl-2-(5-methylthieno[2,3-d]pyrimidine-4-yl)amino-5-indan carboxamide]: in data set [2], the “influence on the activity of sea pansy luciferase” value is reported as “had no influence”. The IC50 is 2.4 nM in data set [1] (Homo sapiens), 48 nM in the data set on TNF-α production (Mus musculus) and 24 nM with NO production (Mus musculus).

Take `Cc1csc2ncnc(NC3Cc4ccc(C(=O)N5CCOCC5)cc4C3)c12` (stereo not shown) [Example 32, 2-[5-methylthieno[2,3-d]pyrimidine-4-yl]aminoindan-5-carboxylic acid morpholinamide]: in data set [2], the “influence on the activity of sea pansy luciferase” value is “had no influence”. In addition, in data set [3] (2 hours), the “edema formation at 2 hours” value is recorded as “significantly suppressed edema formation”. The “edema suppression at 3 hours and after” value in data set [3] (3 hours and after) is “high rate of edema suppression”. Further, the half-maximal inhibitory concentration (IC50) was determined as 51 nM in the data set with NF-κB (IL-1β (1 ng/ml) for 4 hours, read-out: IL-1β stimulation IC50 (NF-κB inhibiting activity)); 89 nM with NF-κB (TNF-α (500 ng/ml) for 4 hours, read-out: TNF-α stimulation IC50 (NF-κB inhibiting activity)); 51 nM in data set [1]; 51 nM in the data set on TNF-α production; 25 nM with NO production.

In turn, `c1ccc2c(c1)CC(Nc1ncnc3nc[nH]c13)C2` [Example 37, 6-(2-indanylamino)purine] displayed a melting point of at least 300 °C.
